Values quoted from earlier work in patent publication US9999577B2, “Cream gels comprising at least one retinoid and benzoyl peroxide” (GALDERMA RESEARCH & DEVELOPMENT, priority 2006, dated 2018).
Where two headings read alike, the source gives them in different places. Values belong to the compound of their own block, whether it stands above or below them.

Columns and labels:
[1] = not given; remark: listed apart in the source
[2] = for Decomposition time of benzoyl peroxide: 40° C.

- Retinoid decomposition in presence of benzoyl peroxide formulation (during 24 hours): no decomposition
Structure (SMILES): COc1ccc(-c2ccc3cc(C(=O)O)ccc3c2)cc1C12CC3CC(CC(C3)C1)C2 [adapalene, 6-(3-(1-adamantyl)-4-methoxyphenyl)-2-naphthoic acid]

Structure (SMILES): O=C(OOC(=O)c1ccccc1)c1ccccc1 [benzoyl peroxide]
- Solubility of benzoyl peroxide ([1]; solvent PEG 400): 39.6 mg/g
- Solubility of benzoyl peroxide ([1]; solvent ethanol): 17.9 mg/g
- Solubility of benzoyl peroxide ([1]; solvent glycerol): 0.15 mg/g
- Solubility of benzoyl peroxide ([1]; solvent propylene glycol): 2.95 mg/g
- Solubility of benzoyl peroxide ([1]; solvent propylene glycol/water (75:25)): 0.36 mg/g
- Solubility of benzoyl peroxide ([1]; solvent water): 0.000155 mg/g
- Decomposition of benzoyl peroxide in suspension ([2]; dispersed form in water and propylene glycol, storing for 90 days): not decomposed
- Decomposition time of benzoyl peroxide ([2]; in PEG 400 (0.5 mg/g)): 1.4 days
- Decomposition time of benzoyl peroxide ([2]; in ethanol): 29 days
- Decomposition time of benzoyl peroxide ([2]; in propylene glycol): 53 days

- Retinoid decomposing in presence of benzoyl peroxide formulation (2 hours): 50%
- Retinoid decomposing in presence of benzoyl peroxide formulation (4 hours): 95%
Structure (SMILES): CC1=C(/C=C/C(C)=C/C=C/C(C)=C/C(=O)O)C(C)(C)CCC1 [tretinoin]
